In this assay the test system is BDF1 mice, P388 leukemia ip, median survival T/C. Put plainly: NCI In Vivo Anticancer Drug Screen. Data for tumor model P388 Leukemia (intraperitoneal) in B6D2F1 (BDF1) mice. The settings on record: endpoint: median survival time, higher = longer survival. The essentials: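 Vehicle-dosed animals serve as the reference; survival of compound-dosed, tumour-implanted mice is divided by it.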

Setting [1] is: dose: 100.0 mg/kg/injection, schedule: Q04DX003 (ip), vehicle: saline with Tween-80.
Where [2] appears, read: dose: 200.0 mg/kg/injection, schedule: Q04DX003 (ip), vehicle: saline with Tween-80.
[3] abbreviates: dose: 400.0 mg/kg/injection, schedule: Q04DX003 (ip), vehicle: saline with Tween-80.
Setting [4] is: dose: 100.0 mg/kg/injection, schedule: Q01DX009 (ip), vehicle: saline with Tween-80.
[5] abbreviates: dose: 200.0 mg/kg/injection, schedule: Q01DX009 (ip), vehicle: saline with Tween-80.
Where [6] appears, read: dose: 100.0 mg/kg/injection, schedule: Q04DX003 (ip), vehicle: saline.
Setting [7] is: dose: 200.0 mg/kg/injection, schedule: Q04DX003 (ip), vehicle: saline.
Where [8] appears, read: dose: 50.0 mg/kg/injection, schedule: Q01DX009 (ip), vehicle: saline with Tween-80.

Where “and” joins values, the source holds several entries; their conditions need not be identical. Identical values can stand only once. Toxic doses and inconclusive results are not listed.

`CC1(C)N=C(N)N=C(N)N1c1cccc(Cl)c1`: the T/C (dose: 1.9 mg/kg/injection, schedule: Q04DX003 (ip), vehicle: saline) is 104 % of control; the T/C (dose: 2.9 mg/kg/injection, schedule: Q04DX003 (ip), vehicle: saline) was 100 % of control; the T/C (dose: 10.0 mg/kg/injection, schedule: Q04DX003 (ip), vehicle: saline) was 113 % of control; the T/C (dose: 18.0 mg/kg/injection, schedule: Q01DX009 (ip), vehicle: saline) is 195 % of control; the T/C (dose: 18.7 mg/kg/injection, schedule: Q01DX009 (ip), vehicle: saline) is 168 % of control; the T/C (dose: 28.0 mg/kg/injection, schedule: Q01DX009 (ip), vehicle: saline) is 160 % of control and 209 % of control. Further, the T/C is, setting by setting: (dose: 37.5 mg/kg/injection, schedule: Q04DX003 (ip), vehicle: saline) 175 % of control and 177 % of control; (dose: 40.0 mg/kg/injection, schedule: Q01DX009 (ip), vehicle: saline) 95 % of control; (dose: 42.0 mg/kg/injection, schedule: Q01DX009 (ip), vehicle: saline) 213 % of control; (dose: 56.25 mg/kg/injection, schedule: Q04DX003 (ip), vehicle: saline) 150 % of control.
Consider `[O-][n+]1ccccc1Br`, for which the T/C was 91 % of control (dose: 50.0 mg/kg/injection, schedule: Q04DX003 (ip), vehicle: water) and 91 % of control (dose: 100.0 mg/kg/injection, schedule: Q04DX003 (ip), vehicle: water).
`O=C(COc1ccc(Cl)cc1Cl)Nc1ccc(F)cc1`: the T/C runs as follows: under setting [1], 95 % of control; under setting [2], 100 % of control; under setting [3], 90 % of control.
For the compound `C1=C\CCC2SC2CC/1` (stereo not drawn), the T/C is 100 % of control (dose: 100.0 mg/kg/injection, schedule: Q04DX002 (ip), vehicle: saline); 97 % of control (dose: 200.0 mg/kg/injection, schedule: Q04DX002 (ip), vehicle: saline); 100 % of control (dose: 400.0 mg/kg/injection, schedule: Q04DX002 (ip), vehicle: saline).
For the compound `CC(C(=O)O)C(=O)O.[NH-]C1CCCCC1[NH-].[Pt+2]`, the T/C is, setting by setting: (dose: 50.0 mg/kg/injection, schedule: Q04DX002 (ip), vehicle: Klucel (hydroxypropylcellulose) (HPC)) 150 % of control; (dose: 200.0 mg/kg/injection, schedule: Q04DX002 (ip), vehicle: Klucel (hydroxypropylcellulose) (HPC)) 203 % of control.
Consider `NC(=S)NNC(=O)/C=C/c1ccccc1`, for which the T/C reads like this: (dose: 100.0 mg/kg/injection, schedule: Q01DX001 (ip), vehicle: saline sonified) 104 % of control; (dose: 200.0 mg/kg/injection, schedule: Q01DX001 (ip), vehicle: saline sonified) 100 % of control; (dose: 400.0 mg/kg/injection, schedule: Q01DX001 (ip), vehicle: saline sonified) 95 % of control.
With `CC1(C)N=C(N)N=C(N)N1c1cccc(CCCCc2ccc(S(=O)(=O)F)cc2Cl)c1`, the T/C by setting is: (dose: 3.13 mg/kg/injection, schedule: Q01DX009 (ip), vehicle: saline sonified) 109 % of control; (dose: 4.0 mg/kg/injection, schedule: Q01DX009 (ip), vehicle: saline) 116 % of control; (dose: 4.0 mg/kg/injection, schedule: Q04DX003 (ip), vehicle: saline with Tween-80) 100 % of control; (dose: 6.0 mg/kg/injection, schedule: Q04DX003 (ip), vehicle: saline with Tween-80) 113 % of control; (dose: 6.25 mg/kg/injection, schedule: Q01DX009 (ip), vehicle: saline) 116 % of control; (dose: 9.0 mg/kg/injection, schedule: Q04DX003 (ip), vehicle: saline with Tween-80) 118 % of control. Moreover, the T/C (dose: 9.4 mg/kg/injection, schedule: Q01DX009 (ip), vehicle: saline) was 116 % of control.
As to `COc1ccc(-c2cc(=O)c3cc(OC)c(OC)cc3o2)cc1OC`, the T/C runs as follows: (dose: 1.88 mg/kg/injection, schedule: Q01DX009 (ip), vehicle: saline) 94 % of control; (dose: 3.75 mg/kg/injection, schedule: Q01DX009 (ip), vehicle: saline) 91 % of control.
With `COc1ccc2nc3cc(Cl)ccc3c(Cl)c2c1`, the T/C runs as follows: under setting [4], 95 % of control; under setting [1], 109 % of control; under setting [5], 95 % of control; under setting [2], 100 % of control; (dose: 400.0 mg/kg/injection, schedule: Q01DX009 (ip), vehicle: saline with Tween-80) 95 % of control; under setting [3], 109 % of control.
Regarding `CC(=O)Nc1ccn(CC(=O)c2cccs2)c(=O)n1`, the T/C runs as follows: (dose: 100.0 mg/kg/injection, schedule: Q01DX009 (ip), vehicle: saline) 90 % of control; under setting [6], 86 % of control; (dose: 200.0 mg/kg/injection, schedule: Q01DX009 (ip), vehicle: saline) 95 % of control; under setting [7], 86 % of control; (dose: 400.0 mg/kg/injection, schedule: Q01DX009 (ip), vehicle: saline) 90 % of control; (dose: 400.0 mg/kg/injection, schedule: Q04DX003 (ip), vehicle: saline) 100 % of control.
Turning to `CC1C(=O)COCC1=O`, the T/C runs as follows: (dose: 100.0 mg/kg/injection, schedule: Q01DX001 (ip), vehicle: saline with Tween-80) 102 % of control; (dose: 200.0 mg/kg/injection, schedule: Q01DX001 (ip), vehicle: saline with Tween-80) 101 % of control; (dose: 400.0 mg/kg/injection, schedule: Q01DX001 (ip), vehicle: saline with Tween-80) 98 % of control.
Take `CCCC/C=C/CO`: the T/C runs as follows: under setting [8], 108 % of control; under setting [4], 103 % of control.
As for `O=c1[nH]cc(CCc2ccccc2)c(=O)[nH]1`, the T/C by setting is: (dose: 100.0 mg/kg/injection, schedule: Q01DX001 (ip), vehicle: Klucel (hydroxypropylcellulose) (HPC)) 105 % of control; (dose: 100.0 mg/kg/injection, schedule: Q01DX009 (ip), vehicle: Klucel (hydroxypropylcellulose) (HPC)) 100 % of control; (dose: 100.0 mg/kg/injection, schedule: Q04DX003 (ip), vehicle: Klucel (hydroxypropylcellulose) (HPC)) 104 % of control; (dose: 200.0 mg/kg/injection, schedule: Q01DX009 (ip), vehicle: Klucel (hydroxypropylcellulose) (HPC)) 88 % of control; (dose: 200.0 mg/kg/injection, schedule: Q04DX003 (ip), vehicle: Klucel (hydroxypropylcellulose) (HPC)) 100 % of control; (dose: 400.0 mg/kg/injection, schedule: Q01DX001 (ip), vehicle: Klucel (hydroxypropylcellulose) (HPC)) 105 % of control. Moreover, for the setting “dose: 400.0 mg/kg/injection, schedule: Q01DX009 (ip), vehicle: Klucel (hydroxypropylcellulose) (HPC)”, the T/C is 92 % of control.
Take `CCCCCCC#CC(=O)OC`: the T/C runs as follows: (dose: 25.0 mg/kg/injection, schedule: Q01DX009 (ip), vehicle: saline with Tween-80) 106 % of control; under setting [8], 106 % of control; under setting [4], 109 % of control; under setting [5], 106 % of control.
Turning to `COC1C(OC(=O)/C=C/C=C/C=C/C=C/C(=O)O)CCC2(CO2)C1C1(C)OC1CC=C(C)C` (stereo not drawn), the T/C (dose: 88.0 mg/kg/injection, schedule: Q04DX003 (ip), vehicle: saline with Tween-80) was 281 % of control; the T/C under setting [6] was 100 % of control; the T/C (dose: 132.0 mg/kg/injection, schedule: Q04DX003 (ip), vehicle: saline with Tween-80) was 281 % of control; the T/C under setting [7] is 117 % of control.
Turning to `IP(c1ccccc1)(c1ccccc1)(c1ccccc1)N1C2CCCCC21` (stereo not drawn), the T/C (dose: 0.07 mg/kg/injection, schedule: Q01DX009 (ip), vehicle: saline) is 104 % of control and 113 % of control; the T/C (dose: 0.15 mg/kg/injection, schedule: Q01DX009 (ip), vehicle: saline) is 150 % of control and 156 % of control; the T/C (dose: 0.23 mg/kg/injection, schedule: Q04DX003 (ip), vehicle: saline) is 109 % of control; the T/C (dose: 0.31 mg/kg/injection, schedule: Q01DX009 (ip), vehicle: saline) is 150 % of control; the T/C (dose: 0.46 mg/kg/injection, schedule: Q04DX003 (ip), vehicle: saline) is 118 % of control; the T/C (dose: 0.6 mg/kg/injection, schedule: Q01DX009 (ip), vehicle: saline) is 166 % of control. Further, the T/C runs as follows: (dose: 0.62 mg/kg/injection, schedule: Q04DX003 (ip), vehicle: saline) 113 % of control; (dose: 0.93 mg/kg/injection, schedule: Q04DX003 (ip), vehicle: saline) 118 % of control; (dose: 1.2 mg/kg/injection, schedule: Q01DX009 (ip), vehicle: saline) 156 % of control.

These data come from PubChem BioAssay AID328 (DTP/NCI, 2004).
